How the values were obtained:
Type in all cases: biochemical
Aurora1 = biological target: T1, Aurora1 (Homo sapiens, UniProt Q96GD4); assay: Aurora1 enzymatic test, NuMA phosphorylation with [33P]ATP, Flashplate; details: Aurora-B/INCENP-C3 recombinant complex, 1 μM ATP
T1 construct: His tag (N); made in house
Protocol: (§1) The inhibitory effect of compounds with respect to the kinases Aurora1 and Aurora2 is determined by means of an enzymatic test using radioactivity detection.
(§2) The kinase activity of Aurora1 and Aurora2 is evaluated via the phosphorylation of the substrate Numa-histidine in the presence of radiolabelled ATP ([^33P]ATP) using 96-well Flashplate plates in which the nickel chelate is bound to the surface of the microplate. The amount of ^33P phosphate incorporated into the NuMA substrate is proportional to the activity of the enzyme Aurora1 or Aurora2.
Aurora1: Aurora-B/INCENP-C3 recombinant complex, purified to about 50%, the N-terminal end of Aurora-B of which has been labeled with histidine.
(§3) NuMA (nuclear protein that combines with the mitotic apparatus): 424-amino acid fragment, expressed in E. coli, the N-terminal end of which has been labeled with histidine, and used as substrate for the two Aurora enzymes.
(§4) The microplates used are 96-well Flash-Plate plates, nickel chelate (Perkin-Elmer, model SMP107).
(§5) The products to be evaluated are incubated in a reaction volume of 100 μL per well, in the presence of 10 nM of Aurora1 or Aurora2, 500 nM of NuMA substrate in a buffer composed of 50 mM Tris/HCl (pH 7.5), 50 mM NaCl, 5 mM MgCl2 (Aurora-B) or 10 mM MgCl2 (Aurora-A) and 1 mM DTT, at 37° C.
(§6) 80 μL of enzyme/substrate incubation buffer are distributed in each well, followed by 10 μL of product to be evaluated, at variable concentrations. The reaction is initiated by adding 1 μM final of ATP containing 0.2 μCi of [^33P]ATP (10 μL). After incubating for 30 minutes, the reaction is quenched by simple removal of the reaction buffer and each well is washed twice with 300 μl of Tris/HCl buffer. The radioactivity is then measured in each well using a Packard, Top-Count model scintillation machine.
(§7) The control enzymatic activity of Aurora is expressed by the number of counts per minute obtained over 30 minutes after subtracting the background noise (reaction mixture containing no enzyme). The evaluation of the various test products is expressed as a percentage of inhibition of the Aurora activity relative to the control.

Aurora2 = biological target: T2, Aurora2 (Homo sapiens, UniProt O14965); assay: Aurora2 enzymatic test, NuMA phosphorylation with [33P]ATP, Flashplate; details: whole recombinant protein, 1 μM ATP
T2 construct: Aurora2: whole recombinant protein comprising an N-terminal histidine tail; His tag (N); made in house; host or cells: E. coli
T2 sequence (O14965 1-403): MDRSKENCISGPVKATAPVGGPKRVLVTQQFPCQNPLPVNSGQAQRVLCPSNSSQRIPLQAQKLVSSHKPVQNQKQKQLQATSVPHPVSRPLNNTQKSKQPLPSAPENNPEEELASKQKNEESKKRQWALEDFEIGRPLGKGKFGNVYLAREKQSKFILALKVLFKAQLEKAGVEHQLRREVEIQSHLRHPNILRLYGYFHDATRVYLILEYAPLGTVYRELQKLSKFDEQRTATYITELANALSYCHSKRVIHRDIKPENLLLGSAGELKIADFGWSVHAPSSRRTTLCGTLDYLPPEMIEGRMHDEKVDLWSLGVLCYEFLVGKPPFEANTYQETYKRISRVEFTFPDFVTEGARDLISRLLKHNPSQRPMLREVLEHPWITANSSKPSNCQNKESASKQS
Protocol: as §1, §2
Aurora2: whole recombinant protein comprising an N-terminal histidine tail, was expressed in E. coli and purified to more than 82%.
as §3, §4, §5, §6, §7

CDK2/cycline E = biological target: T3, CDK2/cycline E (Homo sapiens, UniProt P24941); assay: CDK2/cyclineE Flashplate test in 96-well format; details: CDK2/cycline E complex, 1 μM ATP
T3 construct: made in house; host or cells: Sf21 insect cells (baculovirus coinfection)
Protocol: Two recombinant baculoviruses bearing the human sequences coding, respectively, for CDK2 and cyclineE (the latter bearing a C-terminal hexahistidine tag) are used to coinfect Sf21 insect cells. Two to three days after the start of coinfection, the cells are harvested by centrifugation and then stored at −40° C. until the time of use.
A format in streptavidin-coated 96-well plates is used to test the activity of the compounds on the kinase activity of CDK2/cycline E.
To perform this test, the biotinylated peptide substrate, a fragment of the protein pRb (biotinyl-[…]-OH), is dissolved at a concentration of 1 mM in kinase buffer (HEPES/NaOH 50 mM, NaCl 1 mM, MgCl2 5 mM, pH 7.5) in order to constitute a stock solution stored at −20° C. in the form of 110 μL aliquots. On the day of the experiment, an aliquot of this solution is thawed and diluted in kinase buffer containing 1 mM of dithiothreitol, added to the buffer extemporaneously, in order to obtain a concentration of 14.3 μM. 70 μL of this solution are added to each well of the Flashplate in order to obtain a final substrate concentration of 10 μM during the enzymatic reaction performed in a final volume of the reaction medium of 100 μL (cf. below).
Intermediate dilutions of inhibitors (products of the invention) at various concentrations are prepared in DMSO from stock solutions at 10 mM in separate tubes. Dilutions at 1000 μM, 333.3 μM, 111.1 μM, 37.03 μM, 12.35 μM, 4.11 μM and 1.37 μM are thus prepared. One μL of each of these solutions (or 1 μL of DMSO for the controls) is transferred into the wells of the test plate.
19 μl of a solution of a mixture of adenosine triphosphate (ATP) and of ATPγ^33P in kinase buffer at a total concentration of 5.26 μM of ATP and 52.6 μCi/ml of ^33P are then added to each well. The enzymatic reaction is initiated by adding 10 μL per well of a 200 nM solution of CDK2/cycline E in kinase buffer containing 1 mM of dithiothreitol (or 10 μL of kinase buffer containing 1 mM of dithiothreitol for the reaction blanks).
After addition of each of the reagents, the final volume of each well is 100 μL, the final concentration of substrate is 10 μM, the final inhibitor concentrations are 10 μM, 3.33 μM, 1.11 μM, 0.37 μM, 0.123 μM, 0.041 μM and 0.014 μM (according to the concentration of the intermediate dilution), the final ATP concentration is 1 μM, the final amount of ^33P is 1 μCi/well, and the final concentration of CDK2/cycline E complex is 20 nM.
After addition of all of the reagents, the test plate is incubated at 30° C. with orbital shaking at 650 rpm.
When the incubation is complete, the plate is washed three times with 300 μL per well of PBS (phosphate-buffered saline, pH=7.4, without calcium or magnesium, reference 10010-015, Gibco BRL). The incorporation of ^33P to the peptide is quantified by scintillation counting with a Packard Topcount.NXT machine.

Tie2 = biological target: T4, Tie2 (Homo sapiens, UniProt Q02763); assay: Tie2 kinase test, phosphorylation of PLC with GST-Tie2; details: GST-Tie2 intracellular domain 776-1124
T4 construct: amino acids of the intracellular domain 776-1124; made in house; host or cells: baculovirus expression (pFastBacGT vector)
T4 sequence (Q02763 776-1124): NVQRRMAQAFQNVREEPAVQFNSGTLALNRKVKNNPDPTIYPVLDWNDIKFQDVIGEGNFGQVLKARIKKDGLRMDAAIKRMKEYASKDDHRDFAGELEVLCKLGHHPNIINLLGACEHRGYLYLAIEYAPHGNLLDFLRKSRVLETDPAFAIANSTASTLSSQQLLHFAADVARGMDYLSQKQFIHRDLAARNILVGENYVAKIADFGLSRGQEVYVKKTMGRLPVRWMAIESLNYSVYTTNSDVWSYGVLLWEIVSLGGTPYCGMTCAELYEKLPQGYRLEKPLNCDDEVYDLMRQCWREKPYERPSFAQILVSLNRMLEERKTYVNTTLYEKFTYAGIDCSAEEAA
Protocol: The coding sequence of human Tie2 corresponding to the amino acids of the intracellular domain 776-1124 was generated by PCR using the cDNA isolated from a human placenta as a model. This sequence was introduced into a pFastBacGT baculovirus expression vector in the form of a GST fusion protein.
The inhibitory effect of the molecules is determined in a test of phosphorylation of PLC with Tie2 in the presence of GST-Tie2 purified to about 80% homogeneity. The substrate is composed of the SH2-SH3 fragments of PLC expressed in the form of a GST fusion protein.
The kinase activity of Tie2 is measured in a MOPS 20 mM pH 7.2 buffer, containing 10 mM MgCl2, 10 mM MnCl2, 1 mM DTT, 10 mM of glycerophosphate. In a 96-well FlashPlate plate maintained on ice, a reaction mixture is deposited, composed of 70 μL of kinase buffer containing 100 ng of enzyme GST-Tie2 per well. Next, 10 μL of the test molecule diluted in DMSO to a maximum concentration of 10% are added. For a given concentration, each measurement is performed four times. The reaction is initiated by adding 20 μL of solution containing 2 μg of GST-PLC, 2 μm of cold ATP and 1 μCi of ^33P[ATP]. After incubation for one hour at 37° C., the reaction is stopped by adding 1 volume (100 μl) of 200 mM EDTA. After removal of the incubation buffer, the wells are washed three times with 300 μL of PBS. The radioactivity is measured on a MicroBeta1450 Wallac.
The inhibition of the Tie2 activity is calculated and expressed as a percentage of inhibition relative to the control activity determined in the absence of compound.

T1 sequence (Q96GD4 whole entry, species assumed): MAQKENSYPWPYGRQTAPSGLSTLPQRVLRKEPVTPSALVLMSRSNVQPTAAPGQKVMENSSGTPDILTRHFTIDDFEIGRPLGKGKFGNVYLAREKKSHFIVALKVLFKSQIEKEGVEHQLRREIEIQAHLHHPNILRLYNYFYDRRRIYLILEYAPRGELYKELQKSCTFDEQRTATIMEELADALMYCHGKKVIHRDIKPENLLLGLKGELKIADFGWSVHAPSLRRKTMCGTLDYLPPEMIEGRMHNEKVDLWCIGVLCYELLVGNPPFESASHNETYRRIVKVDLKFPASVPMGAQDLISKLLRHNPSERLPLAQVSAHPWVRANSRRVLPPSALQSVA
T1 sequence (Q9NQS7 835-903 partner limits assumed, species assumed): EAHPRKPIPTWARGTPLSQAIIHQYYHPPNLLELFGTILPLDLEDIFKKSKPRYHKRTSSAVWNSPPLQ

Structure (SMILES)	IC50 (Aurora1)	IC50 (Aurora2)	IC50 (CDK2/cycline E)	IC50 (Tie2)
CN(NC(=O)c1cc2c(NC(=O)c3ccc(CN4CCCOCC4)cc3)n[nH]c2s1)c1ccccc1 [Example 21a, N-[5-(N′-methyl-N′-phenylhydrazinocarbonyl)-1H-thieno[2,3-c]pyrazol-3-yl]-4-perhydro-1,4-oxazepin-4-ylmethylbenzamide]	55 nM	14 nM	122 nM	430 nM
CN1CCN(Cc2cccc(C(=O)Nc3n[nH]c4sc(C(=O)NN(C)c5ccc(Cl)cc5)cc34)c2)CC1 [Example 16b, N-[5-(N′-(4-chlorophenyl)-N′-methylhydrazinocarbonyl)-1H-thieno[2,3-c]pyrazol-3-yl]-3-(4-methylpiperazin-1-ylmethyl)benzamide]	936 nM	606 nM	301 nM	2010 nM
CN1CCCN(Cc2ccc(C(=O)Nc3n[nH]c4sc(C(=O)NN(C)c5ccc(Cl)cc5)cc34)cc2)CC1 [Example 12b, 4-(4-methylperhydro-1,4-diazepin-1-ylmethyl)-N-[5-(N′-(4-chlorophenyl)-N′-methylhydrazinocarbonyl)-1H-thieno[2,3-c]pyrazol-3-yl]benzamide]	151 nM	68 nM	40 nM	218 nM
CC1CN(Cc2ccc(C(=O)Nc3n[nH]c4sc(C(=O)NN(C)c5ccc(Cl)cc5)cc34)cc2)CCN1 (stereo not drawn) [Example 14b, N-{5-[N′-(4-chlorophenyl)-N′-methylhydrazinocarbonyl]-1H-thieno[2,3-c]pyrazol-3-yl}-4-(3-methylpiperazin-1-ylmethyl)benzamide]	148 nM	44 nM	46 nM	425 nM
COc1ccc(C(=O)Nc2n[nH]c3sc(C(=O)NNCc4ccccc4)cc23)cc1 [Example 26, N-[5-(N′-benzylhydrazinocarbonyl)-1H-thieno[2,3-c]pyrazol-3-yl]-4-methoxybenzamide]	42 nM	23 nM	75 nM	175 nM
CN(C)CCN(C)Cc1ccc(C(=O)Nc2n[nH]c3sc(C(=O)NN(C)c4ccccc4)cc23)cc1 [Example 20a, 4-{[(2-dimethylaminoethyl)methylamino]methyl}-N-[5-(N′-methyl-N′-phenylhydrazinocarbonyl)-1H-thieno[2,3-c]pyrazol-3-yl]benzamide]	190 nM	70 nM	347 nM	842 nM
CN1CCN(c2ccc(C(=O)Nc3n[nH]c4sc(C(=O)N/N=C\c5ccccc5)cc34)cc2)CC1 [Example 45, N-[5-(benzylidenehydrazinocarbonyl)-1H-thieno-[2,3-c]pyrazol-3-yl]-4-(4-methylpiperazin-1-yl)benzamide]	33 nM	21 nM	146 nM	29 nM

Compounds with a lower IC50 (Aurora1), results first:

IC50 (Aurora1)	IC50 (Aurora2)	IC50 (CDK2/cycline E)	IC50 (Tie2)	Structure (SMILES)
12 nM	6 nM	100 nM	275 nM	CN(NC(=O)c1cc2c(NC(=O)c3ccc(OCCN4CCOCC4)cc3)n[nH]c2s1)c1ccccc1 [Example 46, N-[5-(N′-methyl-N′-phenylhydrazinocarbonyl)-1H-thieno[2,3-c]pyrazol-3-yl]-4-(2-morpholin-4-ylethoxy)benzamide]
31 nM	45 nM	471 nM	192 nM	COc1ccc(C(=O)Nc2n[nH]c3sc(C(=O)NNC4CCCCC4)cc23)cc1 [Example 3, N-[5-(N′-cyclohexylhydrazinocarbonyl)-1H-thieno-[2,3-c]pyrazol-3-yl]-4-methoxybenzamide]
13 nM		100 nM	8 nM	CCN(NC(=O)c1cc2c(NC(=O)c3ccc(N4CCN(C)CC4)cc3)n[nH]c2s1)c1ccccc1 [Example 33, N-[5-(N′-ethyl-N′-phenylhydrazinocarbonyl)-1H-thieno[2,3-c]pyrazol-3-yl]-4-(4-methylpiperazin-1-yl)benzamide]
8 nM		289 nM	75 nM	CN1CCCN(c2ccc(C(=O)Nc3n[nH]c4sc(C(=O)NN(C)c5ccccc5)cc34)cc2)CC1 [Example 47, 4-(4-methyl[1,4]diazepan-1-yl)-N-[5-(N′-methyl-N′-phenylhydrazinocarbonyl)-1H-thieno[2,3-c]pyrazol-3-yl]benzamide]

Reference: US7595320B2, “Hydrazinocarbonyl-thieno[2,3-C]pyrazoles, process for preparing them, compositions containing them and use thereof” (Aventis Pharma S.A., priority 2005, dated 2009)
